Data: US9512115B2, “Inhibitors” (PROBIODRUG AG, priority 2013, dated 2016)

Test: Pharmacokinetic parameters in mice after oral administration (plasma, brain, CSF)
Type: in vivo, mice (strain CD-1)
Settings: brain tissue vs plasma; CD-1 mice, 30 mg/kg orally
Procedure: The mice were anesthetized with Isoflurane. Approximate 200 μL of each blood sample were collected via cardiac puncture for terminal bleeding into K2EDTA tubes. […] CSF collection: The animals were euthanized with pure CO2 inhalation. A mid line incision was made on the neck. The muscle under the skin was cut to expose the cisterna magna. The cisterna magna was penetrated with the sharp end of a capillary and CSF was collected via capillarity. […] A mid-line incision was made in the animal scalp. The brain was removed and rinsed with cold saline. Brain was placed into a screw-top tube and weighed. […] The brain concentration was corrected with a dilution factor of 4 as following: Brain concentration=brain homogenate conc.×4, assuming 1 g wet brain tissue equals to 1 ml. For plasma samples: […] For Brain samples: Brain tissue was homogenized for 2 min with 3 volumes (v/w) of PBS. […] For CSF samples: […] Tmax, T1/2, AUC and log BB values were calculated using conventional methods.

SMILES | logBB
O=C1OC[C@H](c2ccc(N3CCC(F)(F)C3)c(F)c2)N1c1ccc2[nH]cnc2c1 [compound 21, (S)-3-(1H-benzo[d]imidazol-5-yl)-4-(4-(3,3-difluoropyrrolidin-1-yl)-3-fluorophenyl) oxazolidin-2-one] | −1.208
CC(F)(F)CCOc1ccc([C@H]2COC(=O)N2c2ccc3[nH]cnc3c2)cc1F [compound 10, (S)-3-(1H-benzo[d]imidazol-5-yl)-4-(4-(3,3-difluorobutoxy)-3-fluorophenyl)oxazolidin-2-one] | −1.1234
O=C1OC[C@H](c2ccc(OCCC(F)F)c(F)c2)N1c1ccc2[nH]cnc2c1 [compound 12, (S)-3-(1H-benzo[d]imidazol-5-yl)-4-(4-(3,3-difluoropropoxy)-3-fluorophenyl)oxazolidin-2-one] | −1.1821
O=C1OC[C@H](c2ccc(OCCC(F)F)cc2F)N1c1ccc2[nH]cnc2c1 [compound 2, (S)-3-(1H-benzo[d]imidazol-5-yl)-4-(4-(3,3-difluoropropoxy)-2-fluorophenyl)oxazolidin-2-one] | −1.1517
O=C1OC[C@H](c2ccc(N3CCC(F)(F)C3)cc2F)N1c1ccc2[nH]cnc2c1 [compound 18, (S)-3-(1H-benzo[d]imidazol-5-yl)-4-(4-(3,3-difluoropyrrolidin-1-yl)-2-fluorophenyl)-oxazolidin-2-one] | −1.2913
CC(F)(F)CCOc1ccc([C@H]2COC(=O)N2c2ccc3[nH]cnc3c2)c(F)c1 [compound 3, (S)-3-(1H-benzo[d]imidazol-5-yl)-4-(4-(3,3-difluorobutoxy)-2-fluorophenyl)oxazolidin-2-one] | −1.0428
CC(F)(F)COc1ccc([C@H]2COC(=O)N2c2ccc3[nH]cnc3c2)c(F)c1F [compound 6, (S)-3-(1H-benzo[d]imidazol-5-yl)-4-(4-(2,2-difluoropropoxy)-2,3-difluorophenyl)oxazolidin-2-one] | −1.0431
O=C1OC[C@H](c2ccc(OCCC(F)F)c(F)c2F)N1c1ccc2[nH]cnc2c1 [compound 11, (S)-3-(1H-benzo[d]imidazol-5-yl)-4-(4-(3,3-difluoropropoxy)-2,3-difluorophenyl)oxazolidin-2-one] | −0.9451
CC(F)(F)COc1ccc([C@H]2COC(=O)N2c2ccc3[nH]cnc3c2)c(F)c1 [compound 7, (S)-3-(1H-benzo[d]imidazol-5-yl)-4-(4-(2,2-difluoropropoxy)-2-fluorophenyl)oxazolidin-2-one] | −0.9439
CC(F)(F)CCOc1ccc([C@H]2COC(=O)N2c2ccc3[nH]cnc3c2)c(F)c1F [compound 1, (S)-3-(1H-benzo[d]imidazol-5-yl)-4-(4-(3,3-difluorobutoxy)-2,3-difluorophenyl)-oxazolidin-2-one] | −0.9363
CC(F)(F)COc1c(F)cc([C@H]2COC(=O)N2c2ccc3[nH]cnc3c2)cc1F [compound 8, (S)-3-(1H-benzo[d]imidazol-5-yl)-4-(4-(2,2-difluoropropoxy)-3,5-difluorophenyl)oxazolidin-2-one] | −0.9993
O=C1OC[C@H](c2ccc(N3CCC(F)(F)C3)c(F)c2F)N1c1ccc2[nH]cnc2c1 [compound 19, (S)-3-(1H-benzo[d]imidazol-5-yl)-4-(4-(3,3-difluoropyrrolidin-1-yl)-2,3-difluorophenyl)-oxazolidin-2-one] | −1.2208
CC(F)(F)COc1ccc([C@H]2COC(=O)N2c2ccc3[nH]cnc3c2)cc1F [compound 5, (S)-3-(1H-benzo[d]imidazol-5-yl)-4-(4-(2,2-difluoropropoxy)-3-fluorophenyl)oxazolidin-2-one] | −1.0928
